From patent publication US11998008B2, “Pesticides and methods of controlling pests” (The State of Israel, Ministry of Agriculture & Rural …, priority 2017, dated 2024)
Like-named read-outs stand apart in the source and are kept apart here.

Legend:
S. rolfsii = test: Fungicidal activity assay on PDA in sealed Petri dish (growth inhibition and mortality); assay type: cell-based, Sclerotinia rolfsii; conditions: for MFC: Agroathelia rolfsii, read-out: M - Mortality, minimal concentration that killed the fungus; for I - Inhibition class: 2 days; for I - Inhibition, minimal concentration that inhibited the growth: concentration to which the class above belongs
Experimental: (§1) Each compound was placed on a disconnected cover from an Eppendorf tube that was located in the middle of the Petri dish and a hyphae-containing plug of each test fungus was added to the culture plate. In exemplary procedures, the tested compounds trans-2-heptenal, trans-2-octenal were tested in comparison with octanal, trans-2-octen-1-ol, methyl trans-2-octenoate, trans-3-octen-2-one and 3-pentenenitrile. In addition, cyclic ketones as 2-cyclopenten-1-one, 2-cyclohexen-1-one and α-tetralone were also examined. Then, the culture plate was sealed with parafilm and incubated at room-temperature for 2 days, after which the growth of the test fungi in those dishes was compared with those in the test compound-free control dishes. At the end of the assay, the viability of each test fungus was evaluated by transferring inoculum plugs to fresh PDA plates and observing the growth that developed within the next 2 days. The test fungi used in this study included but were not limited to Alternaria alternata, Botrytis cinerea, Sclerotinia rolfsii, Penicillium digitatum, Fusarium oxysporum f. sp. radicis-cucumerinum and Rhizoctonia solani.

A. alternata = test: as above; assay type: cell-based, Alternaria alternata; conditions: for MFC: Alternaria alternata, read-out: M - Mortality, minimal concentration that killed the fungus; for MFC / M - Mortality, minimal concentration that killed the fungus: NA + number = still viable in the highest concentration tested (given as >); for I - Inhibition class: 2 days; for I - Inhibition, minimal concentration that inhibited the growth: concentration to which the class above belongs
Experimental: as §1, with “In exemplary procedures, the fungicidial activity of the compounds listed in Table 2 were examined by activity assays as follow: Petri dishes, 90 mm in diameter, with air volume of 80 mL, contained 10-12 mL of growth medium comprising potato dextrose agar (PDA) (Acumedia, Lansing, Michigan, USA) amended with tetracycline at 12 μg/mL. Each” for “Each”

B. cinerea = test: as above; assay type: cell-based, Botrytis cinerea; conditions: for MFC: Botrytis cinerea, read-out: M - Mortality, minimal concentration that killed the fungus; for MFC / M - Mortality, minimal concentration that killed the fungus: NA + number = still viable in the highest concentration tested (given as >); for I - Inhibition class: 2 days; for I - Inhibition, minimal concentration that inhibited the growth: concentration to which the class above belongs
Experimental: as §1, with “In exemplary procedures, the fungicidial activity of the compounds listed in Table 2 were examined by activity assays as follow: Petri dishes, 90 mm in diameter, with air volume of 80 mL, contained 10-12 mL of growth medium comprising potato dextrose agar (PDA) (Acumedia, Lansing, Michigan, USA) amended with tetracycline at 12 μg/mL. Each” for “Each”

P. digitatum = test: as above; assay type: cell-based, Penicillium digitatum; conditions: for MFC: Penicillium digitatum, read-out: M - Mortality, minimal concentration that killed the fungus; for MFC / M - Mortality, minimal concentration that killed the fungus: NA + number = still viable in the highest concentration tested (given as >); for I - Inhibition class: 2 days; for I - Inhibition, minimal concentration that inhibited the growth: concentration to which the class above belongs
Experimental: as §1, with “In exemplary procedures, the fungicidial activity of the compounds listed in Table 2 were examined by activity assays as follow: Petri dishes, 90 mm in diameter, with air volume of 80 mL, contained 10-12 mL of growth medium comprising potato dextrose agar (PDA) (Acumedia, Lansing, Michigan, USA) amended with tetracycline at 12 μg/mL. Each” for “Each”

[1] = system: F. oxysporum f. sp. radicis-cucumerium; test: as above; assay type: cell-based, Fusarium oxysporum f. sp. radicis-cucumerinum; conditions: for MFC: Fusarium oxysporum, read-out: M - Mortality, minimal concentration that killed the fungus
Experimental: as §1

R. solani = test: microbe, parasite or virus in culture; assay type: cell-based; conditions: R. solani; for MFC: Rhizoctonia solani, read-out: M - Mortality, minimal concentration that killed the fungus
Experimental: as §1

[2] = system: Meloidogyne javanica second stage juveniles (J2s); test: Nematocidal activity: viability of J2 nematodes after 2 days exposure to the compound in a sealed box; assay type: in vivo; conditions: for Activity: the most effective concentration: concentration to which the class of the same cell belongs
From the text: In exemplary procedures, the sedentary root-knot nematode from the genus Meloidogyne javanica second stage juveniles (J2s) was propagated on greenhouse-grown nematode-susceptible tomato Lycopersicon esculentum cv. ‘Avigail 870’ (Hazera, Shikmim, Israel), and nematode eggs were bulk-extracted from the roots with 0.05% (v/v) sodium hypochlorite (NaOCl) followed by sucrose flotation and successive sievings through nylon filters of 300, 120, 60, and 30 μm mesh sizes (AD Sinun Technologies, Petach Tikvah, Israel). For hatching J2, extracted eggs were placed on 30-μm sieves (AD Sinun Technologies) in 0.01 M MES (2-(N-morpholino) ethanesulfonic acid hydrate) pH 6.5 buffer under aseptic conditions in darkness for 5 days, and hatching J2s were collected for further experiments.
Seven vials, each containing 300 J2 nematodes with 0.5 mL of 0.01 M 2-(N-morpholino)ethanesulfonic acid (MES) buffer, were exposed to cyclic ketone compounds in order to examine their nematocidal activity and reduction in viability. In addition, a humid environment in a sealed 1 L box was maintained by addition 5 ml of distilled H2O to a 50-mm Petri plate. The box was sealed after compound addition into each 50-mm Petri plate together with 5-250 mg of perlite particles and incubated for 2 days in the dark at 25±1° C. C5 and C6 saturated and α,β-unsaturated cyclic ketones were tested for their nematocidal activity. The J2 nematodes viability was examined following exposure to the cyclic ketone compounds, by a straightforward small-scale nematode extraction method, based on the traditional Baermann funnel method. Briefly, all nematode suspensions were loaded onto 30-μm (AD Sinun Technologies) filters (1.0-1.5 cm height, 1.1-2.0 cm^3 internal area), and the nematodes were washed twice with 300 μL of 0.01 M MES buffer in order to remove any residues. Then, filters holding nematodes were placed into 15 mL Falcon centrifuge tubes, each containing 900 μL of 0.01 M of MES buffer. These filters allow active passage of only living J2s while paralyzed or dead nematodes remain on top of the filter. The whole apparatus including the filter holding the nematodes and the Falcon tubes were placed in the dark for 3 h at 25±1° C. Then, the filters were removed and the viable nematodes, which were able to actively cross the filter toward the 0.01 M of MES buffer, were collected from the Falcon tube and counted using a Nematode Counting Slide (Chalex LLC, Portland, OR, USA) and a SV11 stereomicroscope (Zeiss, Jena, Germany).
Data were analyzed by the JMP 12 software package (SAS Inc., Cary, NC, USA). Mean numbers of viable J2s under various conditions were subjected to one-way analysis of variance (ANOVA), followed by the Tukey-Kramer multiple comparison test, with significance set at P<0.05.

test fungi = test: Fungicidal activity assay on PDA, summaries over the test fungi; assay type: cell-based; conditions: for fungicidal activity in words: comparison within the series
Experimental: as §1, with “In exemplary procedures, the fungicidial activity of the compounds listed in Table 2 were examined by activity assays as follow: Petri dishes, 90 mm in diameter, with air volume of 80 mL, contained 10-12 mL of growth medium comprising potato dextrose agar (PDA) (Acumedia, Lansing, Michigan, USA) amended with tetracycline at 12 μg/mL. Each” for “Each”

[3] = S. rolfsii, NA + number = still viable in the highest concentration tested (given as >)
[4] = NA + number = still viable in the highest concentration tested (given as >)
[5] = concentration to which the class above belongs

Compound | MFC (S. rolfsii; [3]) [µg/mL] | MFC (A. alternata) [µg/mL] | MFC (B. cinerea) [µg/mL] | MFC (P. digitatum) [µg/mL] | MFC [1, 4] [µg/mL] | MFC (R. solani; [4]) [µg/mL] | other results
CC(C)CC(=O)CC(C)C [2,6-dimethyl-4-heptanone] | 2500 | > 2500 | > 2500 | > 2500 |  |  | 
CC=CCC#N [3-pentenenitrile] | > 25 |  |  |  | > 25 | > 25 | 
CCCC(=O)CCC [4-heptanone] | 2500 | 2500 | 1250 | > 2500 |  |  | 
CC(C)=CCCC(C)=CC=O [Citral] | 25 | 25 | 25 | > 125 |  |  | 
O=C1CCCCC1 [Cyclohexanone] | 500 |  |  |  | > 250 | > 250 | nematocidal activity in words ([2]; comparison within the series): nematocidal effects at substantially higher concentrations
CCCCCCCCCC=O [Decanal] | > 25 |  |  |  | > 25 | > 25 | 
CCOC(=O)C=Cc1ccccc1 [Ethyl cinnamate] | > 1250 | > 1250 | > 1250 | > 1250 |  |  | 
CC(C)=CCCC(C)=CCCC(C)=CCO [Farnesol] | > 1250 | > 1250 | > 1250 | > 1250 |  |  | 
CCCCCCCCCCCC=O [Lauric aldehyde] |  |  |  |  |  |  | I - Inhibition class (S. rolfsii; S. rolfsii): NI (<50% growth inhibition); M - Mortality, minimal concentration that killed the fungus (S. rolfsii; [3]): > 25 ppm; I - Inhibition, minimal concentration that inhibited the growth (S. rolfsii; S. rolfsii): 25 ppm; I - Inhibition class ([1]; 2 days): NI (<50% growth inhibition); M - Mortality, minimal concentration that killed the fungus [1, 4]: > 25 ppm; I - Inhibition, minimal concentration that inhibited the growth [1, 5]: 25 ppm; fungicidal activity in words (test fungi): lower activity; I - Inhibition class (R. solani; 2 days): NI (<50% growth inhibition); M - Mortality, minimal concentration that killed the fungus (R. solani; [4]): > 25 ppm; I - Inhibition, minimal concentration that inhibited the growth (R. solani; [5]): 25 ppm
CCCCC/C=C/C(=O)OC [Methyl trans-2-octenoate] | 125 | 125 | 125 | 125 |  |  | concentration that completely inhibited the fungi growth (test fungi; dependent on the fungus tested): 125 ppm
CCCCCCCCC=O [Nonanal] | 25 |  |  |  | > 25 | > 25 | 
CCCCCCCC=O [Octanal] | > 25 |  |  |  | > 25 | 12.5 | fungicidal activity in words (test fungi): less fungicidal efficiency
COc1ccc(C=O)cc1 [p-Anisaldehyde] |  |  |  |  |  |  | MFC (S. rolfsii): > 1250 µg/mL
CCCCCCC/C=C/C=O [trans-2-decenal] |  |  |  |  |  |  | fungicidal activity in words (test fungi): lower activity
CCCC/C=C/C=O [trans-2-heptenal] | 6.25 | 12.5 | 125 | 12.5 | 12.5 | 12.5 | concentration that completely inhibited the fungi growth (test fungi; dependent on the fungus tested): 6.25-25 ppm; concentrations at which fungi were not viable (test fungi; dependent on the fungus tested): 6.25-125 ppm
CCC/C=C/C=O [trans-2-hexen-1-al] | 12.5 |  |  |  | 25 | 12.5 | 
CCCCCC/C=C/C=O [trans-2-nonenal] | > 25 |  |  |  | 6.25 | > 25 | 
CCCCC/C=C/CO [trans-2-octen-1-ol] | 80 | 125 | 500 | 50 |  |  | concentration that completely inhibited the fungi growth (test fungi; dependent on the fungus tested): 50 ppm
CCCCC/C=C/C(=O)O [trans-2-octenoic acid] | > 125 | > 125 | > 125 | > 125 |  |  | 
CC/C=C/C=O [trans-2-pentenal] | 25 | 25 | 25 | 25 | 25 | 25 | 
CCCC/C=C/C(C)=O [trans-3-octen-2-one] | 50 | 50 | 50 | 50 |  |  | concentration that completely inhibited the fungi growth (test fungi; dependent on the fungus tested): 50 ppm
O=C/C=C/c1ccccc1 [trans-cinnamaldehyde] | > 1250 |  |  |  |  |  | 
R-(−)-Carvone |  |  |  |  |  |  | I - Inhibition class (S. rolfsii; S. rolfsii): MI (Medium inhibition - 76-99% of growth inhibition); M - Mortality, minimal concentration that killed the fungus (S. rolfsii; [3]): > 1250 ppm; I - Inhibition, minimal concentration that inhibited the growth (S. rolfsii; S. rolfsii): 125 ppm; Activity: the most effective concentration [2]: 250 ppm; I - Inhibition class (A. alternata): SI (Strong inhibition - 100% of growth inhibition compared to control.); M - Mortality, minimal concentration that killed the fungus (A. alternata): > 1250 ppm; I - Inhibition, minimal concentration that inhibited the growth (A. alternata): 125 ppm; I - Inhibition class (B. cinerea): MI (Medium inhibition - 76-99% of growth inhibition); M - Mortality, minimal concentration that killed the fungus (B. cinerea): > 1250 ppm; I - Inhibition, minimal concentration that inhibited the growth (B. cinerea): 25 ppm; I - Inhibition class (P. digitatum): MI (Medium inhibition - 76-99% of growth inhibition); M - Mortality, minimal concentration that killed the fungus (P. digitatum): > 1250 ppm; I - Inhibition, minimal concentration that inhibited the growth (P. digitatum): 625 ppm
trans-2-heptanol |  |  |  |  |  |  | I - Inhibition class (S. rolfsii; S. rolfsii): SI (Strong inhibition - 100% of growth inhibition compared to control.); M - Mortality, minimal concentration that killed the fungus (S. rolfsii; [3]): 500 ppm; I - Inhibition, minimal concentration that inhibited the growth (S. rolfsii; S. rolfsii): 125 ppm; Activity: reduction in J2s viability relative to non exposed control J2s (class) ([2]; at the concentration given, 2 days incubation): L (51-75% reduction in viability); Activity: the most effective concentration [2]: 500 ppm; I - Inhibition class (A. alternata): SI (Strong inhibition - 100% of growth inhibition compared to control.); M - Mortality, minimal concentration that killed the fungus (A. alternata): 500 ppm; I - Inhibition, minimal concentration that inhibited the growth (A. alternata): 125 ppm; I - Inhibition class (B. cinerea): SI (Strong inhibition - 100% of growth inhibition compared to control.); M - Mortality, minimal concentration that killed the fungus (B. cinerea): 500 ppm; I - Inhibition, minimal concentration that inhibited the growth (B. cinerea): 125 ppm; I - Inhibition class (P. digitatum): SI (Strong inhibition - 100% of growth inhibition compared to control.); M - Mortality, minimal concentration that killed the fungus (P. digitatum): 1250 ppm; I - Inhibition, minimal concentration that inhibited the growth (P. digitatum): 125 ppm
